Results published in US11174268B2, “Benzenesulfonamide compouds and their use as therapeutic agents” (Xenon Pharmaceuticals Inc., priority 2016, dated 2021).
pIC50: −log10 of the molar value. Structures can show the parent of a compound that is named as a salt.

Assays:
NaV1.6 [1] = target: T1, NaV1.6 (Homo sapiens (Human), UniProt Q9UQD0); assay: Sodium Influx Assay (Flux), NaV1.6; format: cell-based; details: Trex HEK293 cells, ANG2 dye, inactivated state;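 further: Tetracycline-induced cells, compounds applied for one hour at room temperature with modulators holding channels open, IC50 from percent inhibition of sodium influx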
NaV1.6 [2] = target: T1, NaV1.6; assay: Electrophysiological Assay (EP), patch voltage clamp, NaV1.6; format: cell-based; details: HEK-293 cells, whole-cell patch clamp;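 further: sodium current recorded at ambient temperature, channels held inactivated then briefly repolarized to −150 mV for 20 ms before a test pulse, control currents in 0.5% DMSO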
NaV1.1 [3] = target: T2, NaV1.1 (Homo sapiens (Human), UniProt P35498); assay: Sodium Influx Assay (Flux), NaV1.1; format: cell-based; details: Trex HEK293 cells, ANG2 dye, inactivated state;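 further: channels co-expressed with human β1 subunit and held open by modulators, cells exposed to compounds for one hour at room temperature, IC50 from percent inhibition of influx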
NaV1.1 [4] = target: T2, NaV1.1; assay: Electrophysiological Assay (EP), patch voltage clamp, NaV1.1; format: cell-based; details: HEK-293 cells, whole-cell patch clamp;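 further: sodium current block measured at ambient temperature, holding at fully inactivating potential, 20 ms repolarization to −150 mV before test pulse, versus 0.5% DMSO control currents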
NaV1.5 = NaV1.5 (Homo sapiens (Human), UniProt Q14524); assay: Sodium Influx Assay (Flux), NaV1.5; details: read-out: Flux NaV1.5 IC50; Trex HEK293 cells, ANG2 dye, inactivated state
NaV1.5, sequence (Q14524 other isoform, or with tags, fused parts or gaps): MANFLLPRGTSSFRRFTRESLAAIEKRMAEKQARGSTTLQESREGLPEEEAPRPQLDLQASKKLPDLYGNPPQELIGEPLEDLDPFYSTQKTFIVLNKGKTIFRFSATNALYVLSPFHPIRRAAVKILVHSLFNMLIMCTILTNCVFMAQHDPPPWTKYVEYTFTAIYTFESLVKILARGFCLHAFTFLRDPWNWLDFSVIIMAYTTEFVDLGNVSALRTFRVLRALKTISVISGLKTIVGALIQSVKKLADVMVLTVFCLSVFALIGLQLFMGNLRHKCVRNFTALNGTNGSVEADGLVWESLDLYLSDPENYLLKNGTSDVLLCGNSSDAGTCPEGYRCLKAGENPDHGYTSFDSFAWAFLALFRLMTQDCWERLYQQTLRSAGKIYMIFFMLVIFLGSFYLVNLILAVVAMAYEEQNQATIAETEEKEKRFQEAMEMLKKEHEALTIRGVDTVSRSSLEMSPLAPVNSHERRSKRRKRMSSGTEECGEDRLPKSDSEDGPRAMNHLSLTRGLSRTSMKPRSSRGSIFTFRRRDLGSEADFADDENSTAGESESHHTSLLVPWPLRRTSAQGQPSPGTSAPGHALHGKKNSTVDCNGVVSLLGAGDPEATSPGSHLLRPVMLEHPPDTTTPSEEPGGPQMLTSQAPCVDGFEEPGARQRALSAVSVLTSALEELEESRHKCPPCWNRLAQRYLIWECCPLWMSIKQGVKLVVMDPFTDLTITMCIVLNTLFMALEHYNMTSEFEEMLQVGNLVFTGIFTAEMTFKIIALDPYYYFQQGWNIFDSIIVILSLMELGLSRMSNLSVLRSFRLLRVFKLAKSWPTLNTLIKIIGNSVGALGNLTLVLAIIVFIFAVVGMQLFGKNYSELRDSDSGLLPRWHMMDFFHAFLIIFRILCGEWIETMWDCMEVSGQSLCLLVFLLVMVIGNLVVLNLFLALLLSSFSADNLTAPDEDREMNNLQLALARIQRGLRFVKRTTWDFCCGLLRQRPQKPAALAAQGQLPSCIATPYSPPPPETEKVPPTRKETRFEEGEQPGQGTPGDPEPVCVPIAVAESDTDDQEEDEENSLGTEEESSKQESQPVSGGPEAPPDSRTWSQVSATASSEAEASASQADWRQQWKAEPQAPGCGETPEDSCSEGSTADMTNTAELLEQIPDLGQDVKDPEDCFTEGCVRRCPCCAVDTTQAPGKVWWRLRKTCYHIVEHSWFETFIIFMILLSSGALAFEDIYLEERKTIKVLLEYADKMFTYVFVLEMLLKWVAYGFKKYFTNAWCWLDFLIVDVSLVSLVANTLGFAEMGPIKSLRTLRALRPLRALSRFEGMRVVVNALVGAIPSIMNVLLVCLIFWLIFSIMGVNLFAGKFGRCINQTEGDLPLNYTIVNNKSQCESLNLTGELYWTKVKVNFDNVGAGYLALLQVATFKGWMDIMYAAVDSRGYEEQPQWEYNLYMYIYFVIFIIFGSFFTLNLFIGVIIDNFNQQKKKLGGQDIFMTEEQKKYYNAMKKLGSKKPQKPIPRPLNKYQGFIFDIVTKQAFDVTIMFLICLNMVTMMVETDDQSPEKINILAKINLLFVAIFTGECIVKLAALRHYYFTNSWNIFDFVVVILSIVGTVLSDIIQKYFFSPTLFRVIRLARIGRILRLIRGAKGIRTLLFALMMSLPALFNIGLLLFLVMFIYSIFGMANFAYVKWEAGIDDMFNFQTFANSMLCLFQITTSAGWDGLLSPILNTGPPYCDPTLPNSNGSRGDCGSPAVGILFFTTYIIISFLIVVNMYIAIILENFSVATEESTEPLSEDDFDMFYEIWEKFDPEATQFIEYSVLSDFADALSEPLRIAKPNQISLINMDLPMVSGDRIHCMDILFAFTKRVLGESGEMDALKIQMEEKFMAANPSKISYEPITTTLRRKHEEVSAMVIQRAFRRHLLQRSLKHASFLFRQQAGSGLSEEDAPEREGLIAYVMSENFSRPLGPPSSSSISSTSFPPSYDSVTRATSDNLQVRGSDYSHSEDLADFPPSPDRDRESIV

T1 sequence (Q9UQD0 whole entry): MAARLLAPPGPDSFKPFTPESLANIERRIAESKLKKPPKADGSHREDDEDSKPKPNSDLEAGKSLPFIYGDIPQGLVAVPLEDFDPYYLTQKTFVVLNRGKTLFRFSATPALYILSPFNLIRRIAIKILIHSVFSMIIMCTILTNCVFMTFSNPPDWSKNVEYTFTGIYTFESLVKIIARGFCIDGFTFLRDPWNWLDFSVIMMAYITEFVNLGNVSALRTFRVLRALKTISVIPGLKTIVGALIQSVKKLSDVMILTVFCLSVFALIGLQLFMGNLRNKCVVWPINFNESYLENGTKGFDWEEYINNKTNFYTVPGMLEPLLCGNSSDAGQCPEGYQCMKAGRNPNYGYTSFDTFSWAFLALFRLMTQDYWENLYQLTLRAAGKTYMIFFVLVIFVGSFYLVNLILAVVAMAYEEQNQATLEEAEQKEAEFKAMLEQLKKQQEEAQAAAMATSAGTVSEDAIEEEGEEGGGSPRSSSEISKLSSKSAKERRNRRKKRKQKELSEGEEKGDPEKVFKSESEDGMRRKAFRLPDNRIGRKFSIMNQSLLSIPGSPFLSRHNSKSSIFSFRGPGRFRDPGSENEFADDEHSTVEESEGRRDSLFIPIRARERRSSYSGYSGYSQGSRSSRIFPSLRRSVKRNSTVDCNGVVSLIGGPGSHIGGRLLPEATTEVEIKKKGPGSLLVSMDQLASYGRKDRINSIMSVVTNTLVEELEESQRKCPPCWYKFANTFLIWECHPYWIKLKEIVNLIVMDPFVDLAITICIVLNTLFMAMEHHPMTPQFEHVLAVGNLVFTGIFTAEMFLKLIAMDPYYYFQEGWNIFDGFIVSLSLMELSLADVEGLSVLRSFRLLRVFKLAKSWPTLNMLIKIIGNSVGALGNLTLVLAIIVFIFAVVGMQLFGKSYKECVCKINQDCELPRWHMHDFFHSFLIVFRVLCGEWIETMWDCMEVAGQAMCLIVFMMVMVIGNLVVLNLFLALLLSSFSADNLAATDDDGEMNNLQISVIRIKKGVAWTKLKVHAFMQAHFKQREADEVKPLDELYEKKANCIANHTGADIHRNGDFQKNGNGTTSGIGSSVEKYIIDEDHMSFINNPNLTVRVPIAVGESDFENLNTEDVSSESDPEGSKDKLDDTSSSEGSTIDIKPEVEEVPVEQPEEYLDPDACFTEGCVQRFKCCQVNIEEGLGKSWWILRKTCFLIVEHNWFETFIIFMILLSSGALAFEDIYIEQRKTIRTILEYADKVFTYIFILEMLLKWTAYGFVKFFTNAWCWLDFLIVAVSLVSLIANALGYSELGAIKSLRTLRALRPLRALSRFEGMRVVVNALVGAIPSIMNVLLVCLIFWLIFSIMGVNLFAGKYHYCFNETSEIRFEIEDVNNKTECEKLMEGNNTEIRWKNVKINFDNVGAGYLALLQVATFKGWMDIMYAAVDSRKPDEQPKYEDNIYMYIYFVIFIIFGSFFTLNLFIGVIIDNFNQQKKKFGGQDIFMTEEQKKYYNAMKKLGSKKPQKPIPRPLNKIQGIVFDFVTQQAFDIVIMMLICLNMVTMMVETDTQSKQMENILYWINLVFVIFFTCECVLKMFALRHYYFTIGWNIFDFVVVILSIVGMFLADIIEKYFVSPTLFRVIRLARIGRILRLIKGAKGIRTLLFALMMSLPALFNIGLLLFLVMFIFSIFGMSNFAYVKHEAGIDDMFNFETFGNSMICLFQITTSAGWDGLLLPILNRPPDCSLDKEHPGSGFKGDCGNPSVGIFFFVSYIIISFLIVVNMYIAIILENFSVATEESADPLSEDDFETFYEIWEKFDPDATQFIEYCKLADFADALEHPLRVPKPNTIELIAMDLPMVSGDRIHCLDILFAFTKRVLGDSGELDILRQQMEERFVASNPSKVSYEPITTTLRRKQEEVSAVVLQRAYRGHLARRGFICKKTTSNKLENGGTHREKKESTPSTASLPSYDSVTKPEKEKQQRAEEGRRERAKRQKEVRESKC

## O=S(=O)(Nc1nccs1)c1cc(Cl)c(O[C@H](c2ccccc2)C(F)(F)F)cc1F [Example 80, (R)-5-chloro-2-fluoro-N-(thiazol-2-yl)-4-(2,2,2-trifluoro-1-phenylethoxy)benzenesulfonamide]
NaV1.6 [1]
  pIC50: 5.76
NaV1.6 [2]
  pIC50: 7.00
NaV1.1 [3]
  pIC50: 4.95
NaV1.1 [4]
  pIC50: 5.00
NaV1.5
  pIC50: 5.24

## O=S(=O)(Nc1cscn1)c1ccc(NCc2c(F)cccc2CN2CC(F)C2)c(Cl)c1F [Example 133, 3-chloro-2-fluoro-4-((2-fluoro-6-((3-fluoroazetidin-1-yl)methyl)benzyl)amino)-N-(thiazol-4-yl)benzenesulfonamide]
NaV1.6 [1]
  pIC50: 6.38
NaV1.6 [2]
  pIC50: 6.91
NaV1.1 [3]
  pIC50: 5.20
NaV1.1 [4]
  pIC50: 5.00
NaV1.5
  pIC50: 5.04

## C[C@H](Nc1cc(F)c(S(=O)(=O)Nc2nccs2)cc1Cl)c1cc(F)ccc1F [Example 268, (S)-5-chloro-4-((1-(2,5-difluorophenyl)ethyl)amino)-2-fluoro-N-(thiazol-2-yl)benzenesulfonamide]
NaV1.6 [1]
  pIC50: 7.46
NaV1.6 [2]
  pIC50: 8.00
NaV1.1 [3]
  pIC50: 6.41
NaV1.1 [4]
  pIC50: 6.48
NaV1.5
  pIC50: 5.43

## CC[C@H](Nc1cc(F)c(S(=O)(=O)Nc2nccs2)cc1Cl)c1ccccc1F [Example 47, (S)-5-chloro-2-fluoro-4-((1-(2-fluorophenyl)propyl)amino)-N-(thiazol-2-yl)benzenesulfonamide]
NaV1.6 [1]
  pIC50: 7.05
NaV1.6 [2]
  pIC50: 8.00
NaV1.1 [3]
  pIC50: 6.09
NaV1.1 [4]
  pIC50: 6.94
NaV1.5
  pIC50: 5.19

## C[C@H](Oc1cc(F)c(S(=O)(=O)Nc2cscn2)cc1Cl)c1ccccc1Cl [Example 123, (S)-5-chloro-4-(1-(2-chlorophenyl)ethoxy)-2-fluoro-N-(thiazol-4-yl)benzenesulfonamide]
NaV1.6 [1]
  pIC50: 5.93
NaV1.6 [2]
  pIC50: 6.15
NaV1.1 [3]
  pIC50: 5.24
NaV1.1 [4]
  pIC50: 5.00
NaV1.5
  pIC50: 5.67

## O=S(=O)(Nc1nccs1)c1cc(Cl)c(OCc2ccccc2F)cc1F [Example 122, 5-chloro-2-fluoro-4-((2-fluorobenzyl)oxy)-N-(thiazol-2-yl)benzenesulfonamide]
NaV1.6 [1]
  pIC50: 5.78
NaV1.6 [2]
  pIC50: 6.92
NaV1.1 [3]
  pIC50: 4.52
NaV1.1 [4]
  pIC50: 5.00
NaV1.5
  pIC50: 4.52

## O=S(=O)(Nc1nccs1)c1cc(Cl)c(NC(CN2CCOCC2)c2ccccc2)cc1F (stereo not shown) [Example 74, 5-chloro-2-fluoro-4-((2-morpholino-1-phenylethyl)amino)-N-(thiazol-2-yl)benzenesulfonamide 2,2,2-trifluoroacetate]
NaV1.6 [1]
  pIC50: 6.28
NaV1.6 [2]
  pIC50: 7.28
NaV1.1 [3]
  pIC50: 5.60
NaV1.1 [4]
  pIC50: 5.73
NaV1.5
  pIC50: 4.52

## O=S(=O)(Nc1nccs1)c1ccc(NC2(c3ccccc3)CCC2)c(Cl)c1 [Example 104, 3-chloro-4-((1-phenylcyclobutyl)amino)-N-(thiazol-2-yl)benzenesulfonamide]
NaV1.6 [1]
  pIC50: 6.24
NaV1.6 [2]
  pIC50: 6.82
NaV1.1 [3]
  pIC50: 5.35
NaV1.1 [4]
  pIC50: 5.35
NaV1.5
  pIC50: 5.20

## O=S(=O)(Nc1cscn1)c1cc(Cl)c(NCc2ccccc2CN2CCC2)cc1F [Example 19, 4-((2-(azetidin-1-ylmethyl)benzyl)amino)-5-chloro-2-fluoro-N-(thiazol-4-yl)benzenesulfonamide 2,2,2-trifluoroacetate]
NaV1.6 [1]
  pIC50: 6.37
NaV1.6 [2]
  pIC50: 6.89
NaV1.1 [3]
  pIC50: 4.93
NaV1.1 [4]
  pIC50: 5.00
NaV1.5
  pIC50: 4.73

## C[C@H](Nc1cc(F)c(S(=O)(=O)Nc2ncco2)cc1Cl)c1cc(F)ccc1F [Example 287, (S)-5-Chloro-4-((1-(2,5-difluorophenyl)ethyl)amino)-2-fluoro-N-(oxazol-2-yl)benzenesulfonamide]
NaV1.6 [1]
  pIC50: 5.82
NaV1.6 [2]
  pIC50: 6.33
NaV1.1 [3]
  pIC50: 4.60
NaV1.1 [4]
  pIC50: 5.00
NaV1.5
  pIC50: 4.52

## CC[C@H](Nc1cc(F)c(S(=O)(=O)Nc2nccs2)cc1Cl)c1ccccc1 [Example 40, (S)-5-chloro-2-fluoro-4-((1-phenylpropyl)amino)-N-(thiazol-2-yl)benzenesulfonamide]
NaV1.6 [1]
  pIC50: 6.91
NaV1.6 [2]
  pIC50: 7.62
NaV1.1 [3]
  pIC50: 6.20
NaV1.1 [4]
  pIC50: 6.74
NaV1.5
  pIC50: 5.10

## O=S(=O)(Nc1cscn1)c1c(F)cc(NCc2c(Cl)cccc2CN2CC(F)C2)cc1F [Example 129, 4-((2-chloro-6-((3-fluoroazetidin-1-yl)methyl)benzyl)amino)-2,6-difluoro-N-(thiazol-4-yl)benzenesulfonamide]
NaV1.6 [1]
  pIC50: 6.49
NaV1.6 [2]
  pIC50: 6.60
NaV1.1 [3]
  pIC50: 5.37
NaV1.1 [4]
  pIC50: 5.00
NaV1.5
  pIC50: 4.52

## CC[C@@H](Nc1ccc(S(=O)(=O)Nc2ncns2)cc1Cl)c1ccccc1 [Example 31, (R)-3-chloro-4-((1-phenylpropyl)amino)-N-(1,2,4-thiadiazol-5-yl)benzenesulfonamide]
NaV1.6 [1]
  pIC50: 6.04
NaV1.6 [2]
  pIC50: 6.93
NaV1.1 [3]
  pIC50: 5.21
NaV1.1 [4]
  pIC50: 5.00
NaV1.5
  pIC50: 4.77

## 3-chloro-4-(1-phenylethylamino)-N-(1,2,4-thiadiazol-5-yl)benzenesulfonamide [Example 142]
NaV1.6 [1]
  pIC50: 6.73
NaV1.6 [2]
  pIC50: 6.97
NaV1.1 [3]
  pIC50: 5.49
NaV1.1 [4]
  pIC50: 5.00
NaV1.5
  pIC50: 4.67

## C[C@H](Nc1cc(F)c(S(=O)(=O)Nc2ncc(F)s2)cc1Cl)c1ccccc1F [Example 266, (S)-5-chloro-2-fluoro-4-((1-(2-fluorophenyl)ethyl)amino)-N-(5-fluorothiazol-2-yl)benzenesulfonamide]
NaV1.6 [1]
  pIC50: 6.93
NaV1.6 [2]
  pIC50: 7.82
NaV1.1 [3]
  pIC50: 6.12
NaV1.1 [4]
  pIC50: 6.88
NaV1.5
  pIC50: 5.26

## O=S(=O)(Nc1nccs1)c1cc(Cl)c(NC(CC(F)(F)F)c2ccccc2)cc1F (stereo not shown) [Example 41, 5-chloro-2-fluoro-N-(thiazol-2-yl)-4-((3,3,3-trifluoro-1-phenylpropyl)amino)benzenesulfonamide]
NaV1.6 [1]
  pIC50: 7.15
NaV1.6 [2]
  pIC50: 8.00
NaV1.1 [3]
  pIC50: 6.44
NaV1.1 [4]
  pIC50: 7.51
NaV1.5
  pIC50: 4.93

## O=S(=O)(Nc1cscn1)c1c(F)cc(NCc2c(F)cccc2CN2CC(F)C2)cc1F [Example 194, 2,6-difluoro-4-((2-fluoro-6-((3-fluoroazetidin-1-yl)methyl)benzyl)amino)-N-(thiazol-4-yl)benzenesulfonamide formate]
NaV1.6 [1]
  pIC50: 6.64
NaV1.6 [2]
  pIC50: 7.37
NaV1.1 [3]
  pIC50: 5.07
NaV1.1 [4]
  pIC50: 5.00
NaV1.5
  pIC50: 4.52

## O=S(=O)(Nc1cccc(F)n1)c1cc(Cl)c(NCc2c(F)ccc(F)c2CN2CCC2)cc1F [Example 131, 4-((2-(azetidin-1-ylmethyl)-3,6-difluorobenzyl)amino)-5-chloro-2-fluoro-N-(6-fluoropyridin-2-yl)benzenesulfonamide]
NaV1.6 [1]
  pIC50: 6.42
NaV1.6 [2]
  pIC50: 6.90
NaV1.1 [3]
  pIC50: 5.08
NaV1.1 [4]
  pIC50: 5.00
NaV1.5
  pIC50: 4.96

## C[C@H](Nc1ccc(S(=O)(=O)Nc2ccncn2)cc1C(F)(F)F)c1cc(F)ccc1F [Example 273, (S)-4-((1-(2,5-difluorophenyl)ethyl)amino)-N-(pyrimidin-4-yl)-3-(trifluoromethyl)benzenesulfonamide]
NaV1.6 [1]
  pIC50: 6.05
NaV1.6 [2]
  pIC50: 6.91
NaV1.1 [3]
  pIC50: 4.52
NaV1.1 [4]
  pIC50: 5.00
NaV1.5
  pIC50: 4.52

## O=S(=O)(Nc1nccs1)c1cc(Cl)c(NC2(c3ccccc3)CCC2)cc1F [Example 105, 5-chloro-2-fluoro-4-((1-phenylcyclobutyl)amino)-N-(thiazol-2-yl)benzenesulfonamide]
NaV1.6 [1]
  pIC50: 6.25
NaV1.6 [2]
  pIC50: 7.57
NaV1.1 [3]
  pIC50: 5.43
NaV1.1 [4]
  pIC50: 5.44
NaV1.5
  pIC50: 4.98

## CC[C@H](Nc1ccc(S(=O)(=O)Nc2nccs2)cc1)c1ccccc1 [Example 84, (S)-4-((1-phenylpropyl)amino)-N-(thiazol-2-yl)benzenesulfonamide]
NaV1.1 [3]
  pIC50: 5.62
NaV1.1 [4]
  pIC50: 5.00

## CC[C@H](Nc1ccc(S(=O)(=O)Nc2ncns2)cc1Cl)c1ccccc1 [Example 32, (S)-3-chloro-4-((1-phenylpropyl)amino)-N-(1,2,4-thiadiazol-5-yl)benzenesulfonamide]
NaV1.6 [1]
  pIC50: 7.04
NaV1.6 [2]
  pIC50: 7.64
NaV1.1 [3]
  pIC50: 5.98
NaV1.5
  pIC50: 4.89

## Cc1cc(-c2cccc(F)c2CNc2cc(F)c(S(=O)(=O)Nc3cscn3)c(F)c2)ccn1 [Example 317, 2,6-difluoro-4-((2-fluoro-6-(2-methylpyridin-4-yl)benzyl)amino)-N-(thiazol-4-yl)benzenesulfonamide formate]
NaV1.6 [1]
  pIC50: 6.48
NaV1.6 [2]
  pIC50: 6.01
NaV1.1 [3]
  pIC50: 5.41
NaV1.5
  pIC50: 4.52

## CCC(c1ccccc1)N(C)c1ccc(S(=O)(=O)Nc2nccs2)cc1Cl (stereo not shown) [Example 90, 3-chloro-4-(methyl(1-phenylpropyl)amino)-N-(thiazol-2-yl)benzenesulfonamide]
NaV1.1 [3]
  pIC50: 5.39
NaV1.1 [4]
  pIC50: 5.70

## O=S(=O)(Nc1cscn1)c1ccc(NCc2c(F)ccc(F)c2CN2CCC2)c(F)c1F [Example 213, 4-((2-(azetidin-1-ylmethyl)-3,6-difluorobenzyl)amino)-2,3-difluoro-N-(thiazol-4-yl)benzenesulfonamide 2,2,2-trifluoroacetate]
NaV1.6 [1]
  pIC50: 6.81
NaV1.6 [2]
  pIC50: 7.68
NaV1.1 [3]
  pIC50: 4.52
NaV1.5
  pIC50: 4.52

## O=S(=O)(Nc1ccsn1)c1c(F)cc(NCc2c(F)cccc2CN2CCC2)cc1F [Example 188, 4-((2-(azetidin-1-ylmethyl)-6-fluorobenzyl)amino)-2,6-difluoro-N-(isothiazol-3-yl)benzenesulfonamide 2,2,2-trifluoroacetate]
NaV1.6 [1]
  pIC50: 7.60
NaV1.6 [2]
  pIC50: 7.92
NaV1.1 [3]
  pIC50: 5.04
NaV1.5
  pIC50: 4.52

## Cc1c(NCc2ccccc2CN2CCC2)cc(F)c(S(=O)(=O)Nc2ccncn2)c1F [Example 310, 4-((2-(azetidin-1-ylmethyl)benzyl)amino)-2,6-difluoro-3-methyl-N-(pyrimidin-4-yl)benzenesulfonamide 2,2,2-trifluoroacetate]
NaV1.6 [1]
  pIC50: 8.00
NaV1.6 [2]
  pIC50: 7.96
NaV1.1 [3]
  pIC50: 4.69
NaV1.5
  pIC50: 4.52
